“And” between values parts separate entries of the source, which are not always exact repeats. Equal values may be shown once. Results filed as inconclusive are left out.
Tested on: MX-1 breast xenograft, nude mice, tumor weight T/C
Experiment: NCI In Vivo Anticancer Drug Screen. Data for tumor model Human Mammary Carcinoma MX-1 Xenograft (intrarenal inoculation) in NU/NU Swiss (nude) mice
Details: endpoint: mean tumor weight change, higher = larger tumour
How it was run: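 Read-out: treated (T) over vehicle control (C) ratio of survival or tumor size. Dosing in animals carrying the transplanted tumor.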

[1] = dose: 100.0 mg/kg/injection, schedule: Q04DX003 (ip), vehicle: saline
[2] = dose: 200.0 mg/kg/injection, schedule: Q04DX003 (ip), vehicle: saline
[3] = dose: 400.0 mg/kg/injection, schedule: Q04DX003 (ip), vehicle: saline
[4] = dose: 300.0 mg/kg/injection, schedule: Q04DX003 (sc), vehicle: saline with Tween-80
[5] = dose: 600.0 mg/kg/injection, schedule: Q04DX003 (sc), vehicle: saline with Tween-80
[6] = dose: 1200.0 mg/kg/injection, schedule: Q04DX003 (sc), vehicle: saline with Tween-80
[7] = dose: 2400.0 mg/kg/injection, schedule: Q04DX003 (sc), vehicle: saline with Tween-80
[8] = dose: 100.0 mg/kg/injection, schedule: Q01DX010 (sc), vehicle: Klucel (hydroxypropylcellulose) (HPC)
[9] = dose: 150.0 mg/kg/injection, schedule: Q04DX003 (sc), vehicle: saline
[10] = dose: 50.0 mg/kg/injection, schedule: Q01DX010 (sc), vehicle: Klucel (hydroxypropylcellulose) (HPC)
[11] = dose: 300.0 mg/kg/injection, schedule: Q04DX003 (sc), vehicle: suspension in saline
[12] = dose: 200.0 mg/kg/injection, schedule: Q04DX003 (sc), vehicle: saline with Tween-80
[13] = dose: 400.0 mg/kg/injection, schedule: Q04DX003 (sc), vehicle: saline with Tween-80

O=[N+]([O-])O.O=[N+]([O-])O.[NH-]C1CCCCC1[NH-].[Pt+2] (configuration not stated)
T/C (dose: 1.0 mg/kg/injection, schedule: Q01DX010 (sc), vehicle: dextrose): 62 % of control | T/C (dose: 2.0 mg/kg/injection, schedule: Q01DX010 (sc), vehicle: dextrose): 27 % of control

O=C1CN(CO)C(=O)N1CO
T/C [1]: 93 % of control | T/C [2]: 67 % of control | T/C [3]: 28 % of control

CC[N+](CC)(CC)CC
T/C (dose: 1.5 mg/kg/injection, schedule: Q01DX010 (sc), vehicle: saline with Tween-80): 65 % of control | T/C (dose: 3.0 mg/kg/injection, schedule: Q01DX010 (sc), vehicle: saline with Tween-80): 103 % of control

CCOC(=O)C1(c2ccccc2)C(=O)Oc2ccccc21 (configuration not stated)
T/C [4]: 99 % of control | T/C [5]: 103 % of control | T/C [6]: 101 % of control | T/C [7]: 99 % of control

Cc1c2c(ccc3ccccc32)c[n+]2ccccc12
T/C (dose: 3.13 mg/kg/injection, schedule: Q01DX010 (sc), vehicle: saline): 101 % of control | T/C (dose: 6.25 mg/kg/injection, schedule: Q01DX010 (sc), vehicle: saline): 82 % of control | T/C (dose: 12.5 mg/kg/injection, schedule: Q01DX010 (sc), vehicle: saline): 25 % of control

NC(=O)c1cn(C2OC(CO)C(O)C2O)c2ncnc(N)c12 (configuration not stated)
T/C (dose: 1.5 mg/kg/injection, schedule: Q04DX003 (sc), vehicle: saline): 77 % of control | T/C (dose: 3.0 mg/kg/injection, schedule: Q04DX003 (sc), vehicle: saline): 61 % of control | T/C (dose: 6.0 mg/kg/injection, schedule: Q04DX003 (sc), vehicle: saline): 40 % of control

CC1=CC2C(O)(CC(CO)=CC3C4C(C)(C)C4(OC(=O)c4ccccc4)C(OC(=O)c4ccccc4)C(C)C32O)C1=O (configuration not stated)
T/C (dose: 2.5 mg/kg/injection, schedule: Q04DX003 (sc), vehicle: saline with Tween-80): 83 % of control | T/C (dose: 5.0 mg/kg/injection, schedule: Q04DX003 (sc), vehicle: saline with Tween-80): 70 % of control | T/C (dose: 10.0 mg/kg/injection, schedule: Q04DX003 (sc), vehicle: saline with Tween-80): 90 % of control

O=c1[nH]c(=O)n([C@H]2CCCO2)cc1F
T/C [8]: 112 % of control | T/C (dose: 200.0 mg/kg/injection, schedule: Q01DX010 (sc), vehicle: Klucel (hydroxypropylcellulose) (HPC)): 97 % of control | T/C (dose: 800.0 mg/kg/injection, schedule: Q01DX010 (sc), vehicle: Klucel (hydroxypropylcellulose) (HPC)): 123 % of control

O=C(O)C(O)C(O)C1[O][Sb][O]C1C(=O)O (configuration not stated)
T/C (dose: 75.0 mg/kg/injection, schedule: Q04DX003 (sc), vehicle: saline): 91 % of control | T/C [9]: 99 % of control

F[B-](F)(F)F
T/C (dose: 300.0 mg/kg/injection, schedule: Q04DX003 (sc), vehicle: gum acacia): 106 % of control | T/C (dose: 600.0 mg/kg/injection, schedule: Q04DX003 (sc), vehicle: gum acacia): 104 % of control | T/C (dose: 1200.0 mg/kg/injection, schedule: Q04DX003 (sc), vehicle: gum acacia): 70 % of control

NCCCC(N)(C(=O)O)C(F)F (configuration not stated)
T/C (dose: 300.0 mg/kg/injection, schedule: Q04DX003 (sc), vehicle: distilled water + alcohol): 110 % of control | T/C (dose: 600.0 mg/kg/injection, schedule: Q04DX003 (sc), vehicle: distilled water + alcohol): 83 % of control | T/C (dose: 1200.0 mg/kg/injection, schedule: Q04DX003 (sc), vehicle: distilled water + alcohol): 73 % of control | T/C (dose: 2400.0 mg/kg/injection, schedule: Q04DX003 (sc), vehicle: distilled water + alcohol): 112 % of control

CN(C)N=Nc1ccc(C(=O)O)cc1
T/C [1]: 55 % of control | T/C [2]: 16 % of control | T/C [3]: -31 % of control

CN(Cc1cnc2nc(N)nc(N)c2n1)c1c(Cl)cc(C(=O)NC(CCC(=O)O)C(=O)O)cc1Cl (configuration not stated)
T/C (dose: 12.5 mg/kg/injection, schedule: Q01DX010 (sc), vehicle: Klucel (hydroxypropylcellulose) (HPC)): 86 % of control | T/C (dose: 25.0 mg/kg/injection, schedule: Q01DX010 (sc), vehicle: Klucel (hydroxypropylcellulose) (HPC)): 44 % of control | T/C [10]: -25 % of control

CC1(C)OCC2OC=CC(=O)C2O1 (configuration not stated)
T/C (dose: 150.0 mg/kg/injection, schedule: Q04DX003 (sc), vehicle: saline with Tween-80): 79 % of control | T/C [4]: 73 % of control | T/C [5]: 112 % of control

N#C[C@H](OC1OC(COC2OC(CO)C(O)C(O)C2O)C(O)C(O)C1O)c1ccccc1 (some centres not stated)
T/C (dose: 450.0 mg/kg/injection, schedule: Q04DX003 (sc), vehicle: saline): 63 % of control | T/C (dose: 900.0 mg/kg/injection, schedule: Q04DX003 (sc), vehicle: saline): 69 % of control | T/C (dose: 1800.0 mg/kg/injection, schedule: Q04DX003 (sc), vehicle: saline): 70 % of control | T/C (dose: 3600.0 mg/kg/injection, schedule: Q04DX003 (sc), vehicle: saline): 67 % of control

NC(=O)c1ncn(C2OC(CO)C(O)C2O)c1O (configuration not stated)
T/C (dose: 300.0 mg/kg/injection, schedule: Q04DX003 (sc), vehicle: Klucel (hydroxypropylcellulose) (HPC)): 73 % of control | T/C (dose: 600.0 mg/kg/injection, schedule: Q04DX003 (sc), vehicle: Klucel (hydroxypropylcellulose) (HPC)): 95 % of control | T/C (dose: 1200.0 mg/kg/injection, schedule: Q04DX003 (sc), vehicle: Klucel (hydroxypropylcellulose) (HPC)): 98 % of control

C/C(=N\NC(=S)N1CC2CCC(CC2)C1)c1cccc(C)n1
T/C (dose: 50.0 mg/kg/injection, schedule: Q04DX003 (ip), vehicle: saline with Tween-80): 79 % of control

N=C(N)SCc1c2ccccc2c(CSC(=N)N)c2ccccc12
T/C [11]: 93 % of control | T/C (dose: 600.0 mg/kg/injection, schedule: Q04DX003 (sc), vehicle: suspension in saline): 152 % of control | T/C (dose: 1200.0 mg/kg/injection, schedule: Q04DX003 (sc), vehicle: suspension in saline): 112 % of control | T/C (dose: 2400.0 mg/kg/injection, schedule: Q04DX003 (sc), vehicle: suspension in saline): 89 % of control

CCCCCCCCCCCCCCCCCCOCC(COP(=O)([O-])OCC[N+](C)(C)C)OC (configuration not stated)
T/C [9]: 120 % of control

CCCCCCCCNc1cc2c3c(c1)CCCN3CCC2
T/C (dose: 3.0 mg/kg/injection, schedule: Q04DX003 (sc), vehicle: Klucel (hydroxypropylcellulose) (HPC)): 110 % of control | T/C (dose: 6.0 mg/kg/injection, schedule: Q04DX003 (sc), vehicle: Klucel (hydroxypropylcellulose) (HPC)): 74 % of control | T/C (dose: 12.0 mg/kg/injection, schedule: Q04DX003 (sc), vehicle: Klucel (hydroxypropylcellulose) (HPC)): 108 % of control | T/C (dose: 24.0 mg/kg/injection, schedule: Q04DX003 (sc), vehicle: Klucel (hydroxypropylcellulose) (HPC)): 51 % of control

Cc1oc2c(C)c3oc(=O)cc(C)c3cc2c1CCl
T/C [4]: 109 % of control | T/C [5]: 75 % of control | T/C [6]: 83 % of control | T/C [7]: 54 % of control

Nc1nc(=S)c2ncn(C3CC(O)C(CO)O3)c2[nH]1 (configuration not stated)
T/C (dose: 0.94 mg/kg/injection, schedule: Q04DX003 (sc), vehicle: saline with Tween-80): 97 % of control | T/C (dose: 1.88 mg/kg/injection, schedule: Q04DX003 (sc), vehicle: saline with Tween-80): 81 % of control | T/C (dose: 3.75 mg/kg/injection, schedule: Q04DX003 (sc), vehicle: saline with Tween-80): 97 % of control | T/C (dose: 7.5 mg/kg/injection, schedule: Q04DX003 (sc), vehicle: saline with Tween-80): 87 % of control | T/C [10]: 64 % of control | T/C [8]: 122 % of control

CCC(C(=O)O)C(=O)O.[NH-]CC1CCCC[N-]1.[Pt+2]
T/C (dose: 100.0 mg/kg/injection, schedule: Q04DX003 (sc), vehicle: saline): 51 % of control | T/C [12]: -98 % of control | T/C (dose: 200.0 mg/kg/injection, schedule: Q04DX003 (sc), vehicle: saline): 20 % of control | T/C [4]: -98 % of control | T/C [11]: 14 % of control and 26 % of control | T/C [13]: -100 % of control | T/C (dose: 400.0 mg/kg/injection, schedule: Q04DX003 (sc), vehicle: saline): 2 % of control | T/C (dose: 400.0 mg/kg/injection, schedule: Q04DX003 (sc), vehicle: suspension in saline): 28 % of control and 32 % of control | T/C (dose: 500.0 mg/kg/injection, schedule: Q04DX003 (sc), vehicle: saline with Tween-80): -100 % of control | T/C (dose: 500.0 mg/kg/injection, schedule: Q04DX003 (sc), vehicle: suspension in saline): 3 % of control and 20 % of control

Cc1ccc2c(c1)N=C(Nc1ccccc1)N=S2(C)=O (configuration not stated)
T/C (dose: 100.0 mg/kg/injection, schedule: Q04DX003 (sc), vehicle: saline with Tween-80): 79 % of control | T/C [12]: 78 % of control | T/C [13]: 75 % of control | T/C (dose: 800.0 mg/kg/injection, schedule: Q04DX003 (sc), vehicle: saline with Tween-80): 60 % of control

Reference: PubChem BioAssay AID296 (DTP/NCI, 2004)
